Experimental data published in ChEMBL document CHEMBL1148228, “Synthesis of N tau-arylhistidine derivatives via direct N-arylation” (Bioorg Med Chem Lett, 2004).

Species: Oryctolagus cuniculus
Assay: Inhibitory concentration of compound against antigen binding site in immunized rabbits
Format: functional, organism-based

CC(=O)NC(Cc1cn(-c2ccc(Br)cc2)cn1)C(=O)O (stereo unspecified)
IC50: ~1 µM
